Experimental data as given in patent publication EP4647082A1, “PHARMACEUTICAL COMPOSITION COMPRISING A CGRP RECEPTOR ANTAGONIST FOR THE TREATMENT OF ACUTE MIGRAINE” (NUVIE BIO, Inc., priority 2024, dated 2025).
Bridge positions count the residues as written; N and C are the ends. Square brackets hold non-standard residues; d marks the D form. Peptide text beside a SMILES is read from it. * marks the point of attachment. Phe(2-CONH2) = NC(=O)c1ccccc1C[C@H](N)C(=O)O; Orn(iPr) = CC(C)NCCC[C@H](N)C(=O)O; Oxazole2carbonyl = O=C(c1ncco1)*; 3Pal = N[C@@H](Cc1cccnc1)C(=O)O

Experiment: Degradation rates of 1 mg/mL solutions of AXN-001 at different pH and temperatures over 30 days
Assay type: physicochemical
Experimental: To achieve the higher pH values, an isotonic 10 mM phosphate buffer was used.
The degradation rates were then determined for 1 mg/mL solutions of AXN-001 at pH 3.5, 4.5, 5.5, 6.5, and 7.5, when kept at 2-8°C, 25°C, 40°C, and 60°C for 30 days. Table 1: Degradation rates
Degradation rates at 2-8° C were not determined ("n.d.") because degradation could not be measured at thirty days (with the exception of pH 7.5).

Degradation Rates (pH 3.5, 25°C): 0.058 %/day | Degradation Rates (pH 3.5, 40°C): 0.20 %/day | Degradation Rates (pH 3.5, 60°C): 1.50 %/day | Degradation Rates (pH 4.5, 25°C): 0.019 %/day | Degradation Rates (pH 4.5, 40°C): 0.12 %/day | Degradation Rates (pH 4.5, 60°C): 1.19 %/day | Degradation Rates (pH 5.5, 25°C): 0.007 %/day | Degradation Rates (pH 5.5, 40°C): 0.23 %/day | Degradation Rates (pH 5.5, 60°C): 3.18 %/day | Degradation Rates (pH 6.5, 25°C): 0.039 %/day | Degradation Rates (pH 6.5, 40°C): 0.54 %/day | Degradation Rates (pH 6.5, 60°C): 3.47 %/day | Degradation Rates (pH 7.5, 2-8°C): 0.02 %/day | Degradation Rates (pH 7.5, 25°C): 0.605 %/day | Degradation Rates (pH 7.5, 40°C): 1.62 %/day | Degradation Rates (pH 7.5, 60°C): 5.55 %/day
SMILES: CC(C)NCCC[C@@H]1NC(=O)[C@@H](NC(=O)[C@H](Cc2ccccc2C(N)=O)NC(=O)[C@H](NC(=O)c2ncco2)C(C)C)CSSC[C@@H](C(=O)N[C@@H](Cc2cccnc2)C(N)=O)NC(=O)[C@H](Cc2ccccc2)NC(=O)[C@@H]2CCCN2C(=O)CNC(=O)[C@H](C(C)C)NC(=O)[C@H](CC(=O)O)NC1=O [AXN-001, Oxazole-2-carbonyl-D-Val-Phe(2-Cbm)-c(Cys-Orn (iPr)-Asp-Val-Gly-Pro-Phe-Cys)-3Pal-NH2] (Oxazole2carbonyl-[dV][Phe(2-CONH2)]C[Orn(iPr)]DVGPFC[3Pal]-NH2; disulfide 3-10)
